Source: patent US4085096A, “Hexapeptides and methods for their production” (Parke, Davis & Company, priority 1976, dated 1978)
“And” between values parts separate entries of the source, which are not always exact repeats. Identical values can stand only once.

System: LRF (luteinizing hormone releasing factor) induced luteinizing hormone (LH) release
Test: In vitro LRF antagonist test in rat anterior pituitary cell cultures
Assay type: cell-based
Conditions: for % LH Release Inhibition: test compound Molar Conc. 1 × 10^-6
Text: Hexapeptides of this invention were screened for LRF antagonist activity in vitro using rat anterior pituitary cell cultures as described by Vale et. al. [Endocrinology, 91, 562 (1972)]. The inhibition of LRF (luteinizing hormone releasing factor) induced luteinizing hormone (LH) release into the culture medium is the endpoint in this in vitro bioassay.

[1] = test compound Molar Conc. 1 × 10^-6, LH released into culture medium

N^α -Benzyloxycarbonyl-L-glutaminyl-L-tryptophyl-N^im -benzyl-L-histidyl-O-benzyl-L-tyrosyl-O-benzyl-L-seryl-D-alanine methyl ester
% LH Release Inhibition: 86% | LH Value [1]: 13.53 ng/mL

N^α -t-Butoxycarbonyl-N^im -benzyl-L-histidyl-L-tryptophyl-N^im -benzyl-L-histidyl-O-benzyl-L-tyrosyl-O-benzyl-L-seryl-D-alanine N-ethylamide
% LH Release Inhibition: 73% | LH Value [1]: 24.80 ng/mL

LRF: luteinizing hormone releasing factor; stimulates secretion of luteinizing hormone from the anterior pituitary; used as stimulus control (QHWSYGLRPG; Gonadoliberin-1; UniProt P01148 24-33, looked up) [reference compound]
LH Value (LRF Control, Molar Conc. 2.5 × 10^-10): 38.98 ng/mL | LH Value (LRF Control, Molar Conc. 3.5 × 10^-10): 66.03 ng/mL and 35.60 ng/mL

N^α -t-Butoxycarbonyl-L-tryptophyl-N^im -benzyl-L-histidyl-O-benzyl-L-tyrosyl-O-benzyl-L-seryl-L-prolyl-D-alanine N-ethylamide
% LH Release Inhibition: 100% | LH Value [1]: 5.57 ng/mL
